# Results from patent publication US7455861B2, “Angelicae sinensis extracts useful for treatment of cancers” (priority 2004, dated 2008).
# Where two headings read alike, the source gives them in different places.
# Legend:
# RG2 = experiment: Cytotoxicity (IC50) on RG2; assay type: cell-based, rat; settings: Rattus norvegicus, RG2
# Method: (§1) Human tumor cell lines (MCF-7, CL1-5, HT-29, Caco-2), human umbilical vascular endothelial cells (HUVEC), and human dermal fibroblasts (HDF) were tested for sensitivity on Angelicae sinensis extracts, ligustilide, n-butylidenephthalide and its derivatives in vitro. The DBTRG-05MG, BCM, HL-60 and J5 cells were grown in RPMI-1640 medium containing 10% fetal calf serum and 100 ng/ml penicillin and […] streptomycin at 37° C. in a humidified atmosphere with 5% CO2. The G5T/VGH, RG2, Ni 8, SVEC and Balb/3T3 cells were cultured in DMEM with 10% fetal calf serum and 100 ng/ml penicillin and […] streptomycin at 37° C. in 5% CO2. Mycoplasma infection of the culture cells was excluded by PCR screening methods before each experiment.
# The effects on cell viability after the treatments with different concentrations of the Angelicae sinensis extracts or the active components purified therefrom were evaluated by modified MTT assay in triplicate. Briefly, the cells (5×10^3) were incubated into 96-well plates containing 100 μl of a growth medium. The cells were permitted to adhere for 24 hours, then treated with 100 μl of the herbal extracts or the active components dissolved in the medium. The control contained DMSO of <0.02% (v/v). After 24, 48 and 72 h incubation, the drug-containing medium was replaced by 50 μl of fresh medium, and cells in each well were incubated in 50 μl of 400 μg/ml MTT for 6-8 h. The medium and MTT were removed later and 100 μl of DMSO was added to each well and to the control, to dissolve the soluble components. Absorbance at 550 nm of the solutions was measured with MRX Microtiter Plate Luminometer (DYNEX, USA). The absorbance of untreated cells was considered as 100%. To evaluate the effects of the extracts or the active components on cell growth rate of GBM cells, 5×10^3 exponentially growing cells were treated with different concentrations for 24, 48, or 72 h. The cytotoxicity of each test substance was determined as an IC50 value, which represents the drug concentration required to cause 50% inhibition. All experiments in this study were performed in triplicate.
# RG2 cells = experiment: In situ (intra-cranial) RG2 GBM tumor in rats, MRI tumor volume; assay type: in vivo, F344 rats; settings: BP 300 mg/kg/day s.c. day 4-8, i.c. RG2
# Method: The RG2 cells (rat GBM) and DBTRG-05MG cells (human GBM) were used in animal experiments to monitor the anti-tumor activities of AS-C and BP. Male F344 rat (230-260 g) and male Foxn1 nu/nu mice (10-12 weeks) were obtained from National Laboratory Animal Center (Taipei, Taiwan). All procedures were performed in compliance with the Standard Operation Procedures of the Laboratory Animal Center of Tzu Chi University (Hualien, Taiwan). Animals were kept under pathogen-free conditions and fed a standard laboratory diet. The DBTRG-05MG cells (human GBM) and RG2 cells (rat GBM) were prepared for nude mice xenografts and rat allogenics, respectively.
# The cytotoxic effect of AS-C on in situ tumor was determined with RG2 cells. […] Tumor volumes were measured and calculated by 3-T unit MRI (General Electric, Wisconsin, USA) with echo-planar imaging capability (Signa LX 3.8, General Electric, Wisconsin, USA) in Buddhist Tzu Chi General Hospital (Hualien, Taiwan). […]
# The rats in two groups (6/group) were implanted i.c. (striatum) with 5×10^4 RG2 cells, and randomly treated with BP (300 mg/kg/day) or vehicle s.c. in the hind flank region after tumor cell implantation at day 4, 5, 6, 7 and 8 for five dosages. Tumor volume was measured and calculated by MRI. […] Finally, the whole tumor sizes (mm^3) were measured and calculated for each group.
# [1] = Cytotoxicity (IC50) on Balb/3T3; assay type: cell-based; settings: mouse, Balb/3T3 cells
# Method: as §1
# The effects on cell viability after the treatments with different concentrations of the Angelicae sinensis extracts or the active components purified therefrom were evaluated by modified MTT assay in triplicate. Briefly, the cells (5×10^3) were incubated into 96-well plates containing 100 μl of a growth medium. The cells were permitted to adhere for 24 hours, then treated with 100 μl of the herbal extracts or the active components dissolved in the medium. The control contained DMSO of <0.02% (v/v). […] Absorbance at 550 nm of the solutions was measured with MRX Microtiter Plate Luminometer (DYNEX, USA). The absorbance of untreated cells was considered as 100%. […]
# ETS-1 = experiment: RT-PCR of ETS-1 in HUVEC; assay type: cell-based, human
smiles,measurement,setting,value
"CCCC=C1OC(=O)c2ccccc21 [BP, n-Butylidenephthalide]",IC50,"RG2; Table 1, value in parentheses",7.45 µM
same,IC50,RG2; Table 2,1.4 µg/mL
same,IC50,"RG2; Table 2, value in parentheses",7.45 µM
same,IC50,"RG2; cancer cells, Table 1",1.4 µg/mL
same,mean tumor volume at day 14 (MRI),RG2 cells,46.6±1.8 mm^3
same,mean tumor volume at day 16 (MRI),RG2 cells,91.68±8.3 mm^3
same,IC50,[1]; Table 2,> 300 µg/mL
same,IC50,"[1]; Table 2, value in parentheses",> 1600 µM
same,Inhibition RT-PCR ETS-1,ETS-1,53.13 µg/mL
same,Inhibition RT-PCR ETS-1,ETS-1; value in parentheses,(282.6 μM)
